Results reported in PMC8199755, “In Vitro and In Vivo Trypanocidal Efficacy of Synthesized Nitrofurantoin Analogs” (Molecules, 2021).
Like-named read-outs stand apart in the source and are kept apart here.

Experiments:
T. b. brucei GUTat3.1 = assay: In vitro trypanocidal activity (CellTiter-Glo, 3 days); format: cell-based; details: Trypanosoma brucei, 72 h, bloodstream forms, 37 °C, mean ± SD of triplicate, read-out: Trypanocidal Activity IC50 ± SD, Tbb GUTat3.1
Protocol: (§1) The bloodstream forms of T. b. brucei GUTat3.1, T. b. rhodesiense IL1501, T. b. rhodesiense Chirundu, T. b. gambiense IL1922, and T. evansi Tansui strains were propagated in culture at 37 °C, whereas the T. congolense IL3000 strain was propagated at 33 °C in Hirumi’s modified Iscove’s medium-9, supplemented with 20% heat-inactivated fetal bovine serum. The bloodstream form cultures were maintained by replacing the entire culture supernatant with fresh medium, every other day.
(§2) The trypanocidal activity and cytotoxicity of nitrofurantoin analogs were evaluated according to previous reports, with some modifications. In brief, bloodstream forms adjusted at 2.5 × 10^3 cells/mL (T. b. brucei GUTat3.1, T. b. gambiense IL1922, and T. b. rhodesiense IL1501), 1 × 10^4 cells/mL (T. evansi Tansui and T. b. rhodesiense Chirundu), and 1 × 10^5 cells/mL (T. congolense IL3000), were cultivated in Nunc® MicroWell 96-well optical bottom plates (Thermo Fisher Scientific, Waltham, MA, USA) and exposed to various analogs at seven different concentrations for 3 days, in an incubator at 37 °C (33 °C for T. congolense IL3000). […] Twenty-five microliters of the Cell-TiterGlo® (Promega, Madison, WI, USA) reagent was added into each well, and bioluminescence was measured using a GloMax®-Multi+Detection System plate reader (Promega).
(§3) The half maximum inhibitory concentration (IC50) of each analog in trypanosomes and the Madin–Darby bovine kidney cells was calculated using the GraphPad Prism version 8 software (GraphPad, Inc., San Diego, CA, USA).

T. b. gambiense IL1922 = assay: as above; format: cell-based; details: Trypanosoma brucei, 72 h, bloodstream forms, 37 °C, mean ± SD of triplicate, read-out: Trypanocidal Activity IC50 ± SD, Tbg IL1922
Protocol: as §1, §2, §3

[1] = system: T. b. rhodesiense Chirundu; assay: as above; format: cell-based; details: Trypanosoma brucei, 72 h, bloodstream forms, 37 °C, mean ± SD of triplicate, read-out: Trypanocidal Activity IC50 ± SD, Tbr Chirundu
Protocol: as §1, §2, §3

T. b. rhodesiense IL1501 = assay: as above; format: cell-based; details: Trypanosoma brucei, 72 h, bloodstream forms, 37 °C, mean ± SD of triplicate, read-out: Trypanocidal Activity IC50 ± SD, Tbr IL1501
Protocol: as §1, §2, §3

T. congolense IL3000 = assay: as above; format: cell-based; details: bloodstream forms, 33 °C, mean ± SD of triplicate, read-out: Trypanocidal Activity IC50 ± SD, Tc IL3000
Protocol: as §1, §2, §3

T. evansi Tansui = assay: as above; format: cell-based; details: 72 h, bloodstream forms, 37 °C, mean ± SD of triplicate, read-out: Trypanocidal Activity IC50 ± SD, Tev Tansui
Protocol: as §1, §2, §3

[2] = Cytotoxicity (Cell Counting Kit-8, 3 days); format: cell-based, bovine; details: bovine, Madin–Darby bovine kidney (MDBK) cells, 37 °C, mean ± SD of triplicate
Protocol: Additionally, Madin–Darby bovine kidney cells were cultivated (density, 1 × 10^4 cells/mL) in a 96-well cell culture plate (Thermo Fisher Scientific) with the analogs, at seven different concentrations for 3 days at 37 °C. Next, 10 µl of the Cell Counting Kit-8 solution (Dojindo, Kumamoto, Japan) was added into each well […] 4 h of incubation. Absorbance was measured at 450 nm using a GloMax®-Multi+Detection System plate reader.
as §3

SMILES | IC50 (T. b. brucei GUTat3.1) [nM] | IC50 (T. b. gambiense IL1922) [nM] | IC50 [1] [nM] | IC50 (T. b. rhodesiense IL1501) [nM] | IC50 (T. congolense IL3000; Trypanosoma congolense, 72 h) [nM] | IC50 (T. evansi Tansui) [nM] | IC50 at 3 days [2] [nM] | IC50 (T. congolense IL3000) [nM]
CCCCCCCCCCN1C(=O)CN(/N=C/c2ccc([N+](=O)[O-])o2)C1=O [Analog 10, (E)-3-Decyl-1-([(5-nitrofuran-2-yl)methylene]amino)imidazolidine-2,4-dione] | 650 ± 560 | 620 ± 700 | 17 ± 4.4 | 610 ± 60 | 11 ± 4.4 | 280 ± 25 | 110000 ± 14400 | 
CCCCCCN1C(=O)CN(/N=C/c2ccc([N+](=O)[O-])o2)C1=O [Analog 6, (E)-3-Hexyl-1-([(5-nitrofuran-2-yl)methylene]amino)imidazolidine-2,4-dione] | 5760 ± 4010 | 2590 ± 280 | 170 ± 110 | 2610 ± 120 | 80 ± 47 | 3760 ± 470 | 25200 ± 3520 | 
CN1C(=O)CN(/N=C/c2ccc([N+](=O)[O-])o2)C1=O [Analog 1, (E)-3-Methyl-1-([(5-nitrofuran-2-yl)methylene]amino)imidazolidine-2,4-dione] | 3610 ± 400 | 3600 ± 260 |  | 7020 ± 94 | 190 to 730 | 1610 ± 98 | 65200 ± 12800 | 190 ± 76
Cc1ccc(C(=O)Nc2ccc(S(=O)(=O)O)c3cc(S(=O)(=O)O)cc(S(=O)(=O)O)c23)cc1NC(=O)c1cccc(NC(=O)Nc2cccc(C(=O)Nc3cc(C(=O)Nc4ccc(S(=O)(=O)O)c5cc(S(=O)(=O)O)cc(S(=O)(=O)O)c45)ccc3C)c2)c1 [Suramin, reference compound] | 66 ± 5.2 | 64 ± 1.8 | 66 ± 71 | 76 ± 11 | 7170 ± 870 | 380 ± 58 |  | 
NCCCC(N)(C(=O)O)C(F)F (stereo not drawn) [Eflornithine, reference compound] | 38600 ± 9880 | 36700 ± 12900 | 35600 ± 10200 | 46000 ± 17100 | 16100 ± 2930 | 57200 ± 17600 |  | 
COc1ccc(CN2C(=O)CN(/N=C/c3ccc([N+](=O)[O-])o3)C2=O)cc1 [Analog 18, (E)-3-(p-Methoxybenzyl)-1-([(5-nitrofuran-2-yl)methylene]amino)imidazolidine-2,4-dione] | 9910 ± 92 | 9780 ± 310 | 330 ± 220 | 10100 ± 620 | 140 ± 30 | 2400 ± 190 | 80100 ± 36900 | 
CCCCCN1C(=O)CN(/N=C/c2ccc([N+](=O)[O-])o2)C1=O [Analog 5, (E)-1-([(5-Nitrofuran-2-yl)methylene]amino)-3-pentylimidazolidine-2,4-dione] | 4240 ± 1990 | 3420 ± 1470 |  | 5690 ± 1660 | 350 ± 150 | 5440 ± 170 | 39100 ± 5860 | 
O=C1CN(/N=C/c2ccc([N+](=O)[O-])o2)C(=O)N1Cc1ccccc1 [Analog 14, (E)-3-Benzyl-1-([(5-nitrofuran-2-yl)methylene]amino)imidazolidine-2,4-dione] | 2880 ± 260 | 2340 ± 640 | 270 ± 120 | 2830 ± 610 | 180 ± 17 | 1260 ± 100 | > 305000 | 
O=C1CN(/N=C/c2ccc([N+](=O)[O-])o2)C(=O)N1CCCc1ccccc1 [Analog 13, (E)-1-([(5-Nitrofuran-2-yl)methylene]amino)-3-(3-phenylpropyl)imidazolidine-2,4-dione] | 7290 ± 3160 | 4830 ± 3220 | 140 ± 67 | 5900 ± 3750 | 140 ± 30 | 3110 ± 370 | > 281000 | 
